For data set [1], the system named is Mus musculus. Nature of the data set: Antitumor activity was evaluated against the M5076 reticulum cell sarcoma in mice measured as mean tumor volume for the treated at the optimal dose 1000 mg/Kg/day. The class given is functional.
Data set [2] relates to Mus musculus. Put plainly: Antitumor activity was evaluated for the compound against the M5076 reticulum cell sarcoma in mice and the % T/C(treated/control) value was calculated at optimal dose of 1000 mg/kg. The class given is functional.
The subject of data set [3] is Mus musculus. Nature of the data set: Antitumor activity was evaluated against the M5076 reticulum cell sarcoma in mice at dose of 2500-600 mg/kg per day. The class given is ADME, organism-based.
The test system of data set [4] is Mus musculus. Nature of the data set: Antitumor activity was evaluated against the M5076 reticulum cell sarcoma in mice measured as Control tumor volume for the treated at the optimal dose 1000 mg/Kg/day. In kind it is functional.
Data set [5] relates to Mus musculus. Nature of the data set: Antitumor activity was evaluated against the M5076 reticulum cell sarcoma in mice at dose of 1500-600 mg/kg per day. The class given is functional.
In data set [6] the test system is Mus musculus. Put plainly: Antitumor activity was evaluated against the M5076 reticulum cell sarcoma in mice measured as mean tumor volume for the treated at the optimal dose 400 mg/kg day. The class given is functional.
The test system of data set [7] is Mus musculus. Nature of the data set: Antitumor activity was evaluated against the M5076 reticulum cell sarcoma in mice measured as Control tumor volume for the treated at the optimal dose 400 mg/Kg day. In kind it is functional.
Data set [8] deals with Mus musculus. Put plainly: Antitumor activity was evaluated against the M5076 reticulum cell sarcoma in mice at dose of 800-100 mg/kg per day. The class given is ADME, organism-based.
For data set [9], the system named is Mus musculus. Put plainly: Antitumor activity was evaluated against the M5076 reticulum cell sarcoma in mice measured as Control tumor volume for the treated at the optimal dose 200 mg/Kg/day. The class given is functional.
Data set [10] relates to Mus musculus. Put plainly: Antitumor activity was evaluated against the TLX5 lymphoma measured as mean death day for the treated at a optimal dose of 800 mg/Kg/day. The class given is functional.
In data set [11] the test system is Mus musculus. Nature of the data set: Antitumor activity was evaluated against the M5076 reticulum cell sarcoma in mice measured as mean tumor volume for the treated at the optimal dose 200 mg/Kg/day. The class given is functional.
Data set [12] relates to Mus musculus. Nature of the data set: Antitumor activity was evaluated against the TLX5 lymphoma in mice measured for control as death day at a optimal doses of 800 mg/Kg/day. The class given is functional.
Data set [13] deals with Mus musculus. Put plainly: Antitumor activity was evaluated for the compound against the M5076 reticulum cell sarcoma in mice and the % T/C(treated/control) value was calculated at optimal dose of 200 mg/kg. The class given is functional.
Data set [14] deals with Mus musculus. Put plainly: Antitumor activity was evaluated against the M5076 reticulum cell sarcoma in mice at dose of 400-100 mg/kg per day. The class given is ADME, organism-based.
The subject of data set [15] is Mus musculus. Nature of the data set: Antitumor activity was evaluated against the TLX5 lymphoma in mice measured as treated to control at optimal dose. 800 mg/Kg/day. The class given is functional.
Data set [16] relates to Mus musculus. Nature of the data set: Antitumor activity was evaluated against the TLX5 lymphoma in mice measured as treated to control at optimal dose. 400 mg/Kg/day. In kind it is functional.
Data set [17] relates to Mus musculus. Nature of the data set: Antitumor activity was evaluated against the TLX5 lymphoma measured as mean death day for the treated at a optimal dose 800 mg/Kg/day. In kind it is functional.
Data set [18] has as its system Mus musculus. Put plainly: Antitumor activity was evaluated against the TLX5 lymphoma in mice measured for control as death day at the below optimal dose 400 mg/Kg/day. In kind it is functional.
For data set [19], the system named is Mus musculus. Nature of the data set: Antitumor activity was evaluated against the M5076 reticulum cell sarcoma in mice measured as mean tumor volume for the treated at the optimal dose 50 mg/Kg/day. In kind it is functional.
The subject of data set [20] is Mus musculus. Put plainly: Antitumor activity was evaluated for the compound against the M5076 reticulum cell sarcoma in mice and the % T/C(treated/control) value was calculated at optimal dose of 100 mg/kg. The class given is functional.
Data set [21] has as its system Mus musculus. Nature of the data set: Antitumor activity was evaluated against the M5076 reticulum cell sarcoma in mice at dose of 400-6.25 mg/kg per day. In kind it is ADME, organism-based.
Data set [22] has as its system Mus musculus. Nature of the data set: Antitumor activity was evaluated against the TLX5 lymphoma in mice measured as treated to control at a optimal dose of 400 mg/Kg/day. In kind it is functional.
Data set [23] concerns Mus musculus. Put plainly: Antitumor activity was evaluated against the TLX5 lymphoma measured as mean death day for the treated at a optimal dose of 400 mg/Kg/day. In kind it is functional.
The test system of data set [24] is Mus musculus. Nature of the data set: Antitumor activity was evaluated for the compound against the M5076 reticulum cell sarcoma in mice and the % T/C(treated/control) value was calculated at optimal dose of 50 mg/kg. In kind it is functional.
Data set [25] relates to Mus musculus. Nature of the data set: Antitumor activity was evaluated against the TLX5 lymphoma measured as mean death day for the treated at a optimal dose of 100 mg/Kg/day. The class given is functional.
Data set [26] deals with Mus musculus. Nature of the data set: Antitumor activity was evaluated against the TLX5 lymphoma in mice measured as treated to control at a optimal dose of 800 mg/Kg/day. In kind it is functional.
For data set [27], the system named is Mus musculus. Nature of the data set: Antitumor activity was evaluated against the TLX5 lymphoma measured as mean death day for the treated at a optimal dose of 200 mg/Kg/day. The class given is functional.
For data set [28], the system named is Mus musculus. Put plainly: Antitumor activity was evaluated against the M5076 reticulum cell sarcoma in mice measured as Control tumor volume for the treated at the optimal dose 50 mg/kg/day. The class given is functional.
Data set [29] has as its system Mus musculus. Put plainly: Antitumor activity was evaluated against the TLX5 lymphoma in mice measured for control as death day at a optimal dose of 100 mg/Kg/day. In kind it is functional.
The subject of data set [30] is Mus musculus. Nature of the data set: Antitumor activity was evaluated against the M5076 reticulum cell sarcoma in mice measured as Control tumor volume for the treated at the optimal dose 25 mg/Kg/day. The class given is functional.
In data set [31] the test system is Mus musculus. Put plainly: Antitumor activity was evaluated against the TLX5 lymphoma in mice measured for control as death day at a optimal dose of 200 mg/Kg/day. The class given is functional.
The test system of data set [32] is Mus musculus. Put plainly: Antitumor activity was evaluated against the M5076 reticulum cell sarcoma in mice measured as mean tumor volume for the treated at the optimal dose 25 mg/Kg/day. The class given is functional.
In data set [33] the test system is Mus musculus. Nature of the data set: Antitumor activity was evaluated against the M5076 reticulum cell sarcoma in mice measured as mean tumor volume for the treated at the optimal dose 100 mg/Kg/day. The class given is functional.
Data set [34] concerns Mus musculus. Put plainly: Antitumor activity was evaluated against the TLX5 lymphoma in mice measured as treated to control at a optimal dose of 100 mg/Kg/day. In kind it is functional.
In data set [35] the test system is Mus musculus. Put plainly: Antitumor activity was evaluated against the TLX5 lymphoma in mice measured as treated to control at a optimal dose of 200 mg/Kg/day. The class given is functional.
The subject of data set [36] is Mus musculus. Put plainly: Antitumor activity was evaluated for the compound against the M5076 reticulum cell sarcoma in mice and the % T/C(treated/control) value was calculated at optimal dose of 25 mg/kg. In kind it is functional.
In data set [37] the test system is Mus musculus. Nature of the data set: Antitumor activity was evaluated against the TLX5 lymphoma in mice measured for control as death day at a optimal dose of 800 mg/Kg/day. The class given is functional.
For data set [38], the system named is Mus musculus. Nature of the data set: Antitumor activity was evaluated against the M5076 reticulum cell sarcoma in mice measured as Control tumor volume for the treated at the optimal dose 100 mg/kg/day. In kind it is functional.
The test system of data set [39] is Mus musculus. Put plainly: Antitumor activity was evaluated against the M5076 reticulum cell sarcoma in mice measured as Control tumor volume for the treated at the optimal dose 50 mg/Kg/day. In kind it is functional.
Data set [40] concerns Mus musculus. Nature of the data set: Antitumor activity was evaluated against the M5076 reticulum cell sarcoma in mice at dose of 200-25 mg/kg per day. In kind it is ADME, organism-based.
Data set [41] concerns Mus musculus. Nature of the data set: Antitumor activity was evaluated against the TLX5 lymphoma in mice measured as treated to control at optimal dose. 100 mg/Kg/day. In kind it is functional.
Data set [42] concerns Mus musculus. Nature of the data set: Antitumor activity was evaluated against the TLX5 lymphoma in mice measured for control as death day at a optimal dose 400 mg/Kg/day. In kind it is functional.
Data set [43] deals with Mus musculus. Nature of the data set: Antitumor activity was evaluated against the TLX5 lymphoma measured as mean death day for the treated at a optimal dose 400 mg/Kg/day. In kind it is functional.
For data set [44], the system named is Mus musculus. Nature of the data set: Antitumor activity was evaluated against the M5076 reticulum cell sarcoma in mice at dose of 150-6.25 mg/kg per day. In kind it is ADME, organism-based.

Each structure is given as a SMILES string.

On to `O=CNCO`, for which the Mean tumor volume in the data set on Mus musculus [1] was determined as 0.8. For the same compound, the T/C in the data set with Mus musculus [2] was 38%. In the data set on Mus musculus [3], this compound registered an LD10 of 1580 mg/kg/day and an LD50 of 1930 mg/kg/day. Also, the Control tumor volume in the data set with Mus musculus [4] stood at 2.1.

Take `CN(C)C=O` [DIMETHYLFORMAMIDE]: in the data set with Mus musculus [1], the Mean tumor volume was found to be 1. In addition, the T/C in the data set on Mus musculus [2] is 40%. Further, the Control tumor volume in the data set with Mus musculus [4] is 2.5. In addition, in the data set on Mus musculus [5], the LD10 turned out to be 1130 mg/kg/day and the LD50 turned out to be 1280 mg/kg/day.

With `CNC(=O)c1ccccc1`, in the data set with Mus musculus [6], the Mean tumor volume is listed as 0.8. The Control tumor volume in the data set on Mus musculus [7] is on record as 1.9. In addition, in the data set on Mus musculus [8], the LD10 came to 450 mg/kg/day and the LD50 amounted to 650 mg/kg/day.

In turn, `NC=O` [FORMAMIDE] returned a Control tumor volume in the data set with Mus musculus [9] of 2.1. Besides, the “Mean day of death” value in the data set on Mus musculus [10] was 11.2. Further, the Mean tumor volume in the data set with Mus musculus [11] is 0.8. Besides, in the data set on Mus musculus [12], the Control death day was found to be 9.1. In addition, in the data set with Mus musculus [13], the T/C is listed as 38%. In the data set on Mus musculus [14], the LD10 was 200 mg/kg/day and the LD50 was found to be 270 mg/kg/day. The compound further gave a T/C in the data set with Mus musculus [15] of 123%.

For `[2H]C([2H])([2H])NC=O`, in the data set on Mus musculus [16], the T/C is reported as 142%. In addition, the “Mean day of death” value in the data set on Mus musculus [17] turned out to be 18.8. Also, the Control death day in the data set on Mus musculus [12] was 13.2.

With `CNC=O`, the Control death day in the data set with Mus musculus [18], in the data set on Mus musculus [29], with Mus musculus [31] and in the data set with Mus musculus [37] was 9.2 in each case. Moreover, the Mean tumor volume stood at 0.9 in the data set with Mus musculus [19], 2.1 with Mus musculus [32] and 0.3 in the data set with Mus musculus [33]. Also, the T/C is 11% with Mus musculus [20]; 178% in the data set with Mus musculus [22]; 33% in the data set with Mus musculus [24]; 191% with Mus musculus [26]; 120% with Mus musculus [34]; 135% in the data set with Mus musculus [35]. In addition, the T/C was 0% in the data set with Mus musculus [13] and 70% with Mus musculus [36]. For the same compound, the Control tumor volume in the data set on Mus musculus [9], in the data set on Mus musculus [28], with Mus musculus [30] and in the data set on Mus musculus [38] was 2.7 throughout. Also, in the data set on Mus musculus [21], the LD10 worked out at 220 mg/kg/day. In addition, the 50% lethal dose (LD50) in the data set on Mus musculus [21] amounted to 300 mg/kg/day. Moreover, the “Mean day of death” value in the data set with Mus musculus [23] was found to be 16.4; in the data set on Mus musculus [10] it was 17.6; with Mus musculus [25], 11; with Mus musculus [27], 12.4.

`CN(C)/C=C\[N+](=O)[O-]` displayed a Mean tumor volume in the data set with Mus musculus [19] of 0.5. For the same compound, the Control tumor volume in the data set with Mus musculus [39] was 1.5. Also, the T/C is given as 35% in the data set with Mus musculus [24] and 139% in the data set with Mus musculus [41]. The compound further registered an LD10 with Mus musculus [40] of 55 mg/kg/day. The 50% lethal dose (LD50) in the data set with Mus musculus [40] is 75 mg/kg/day. Moreover, the “Mean day of death” value in the data set with Mus musculus [25] is on record as 15.4. In the data set with Mus musculus [29], this compound had a Control death day of 11.1.

For the compound `CCNC=O`, in the data set with Mus musculus [42], the Control death day was 9.2. Also, the T/C in the data set on Mus musculus [15] stood at 137%. Also, the “Mean day of death” value in the data set on Mus musculus [43] turned out to be 12.6.

The compound `CNC(=O)ON(C(C)=O)C(=O)NC` [CARACEMIDE] yielded a Mean tumor volume in the data set on Mus musculus [19] of 0.9. For the same compound, in the data set on Mus musculus [39], the Control tumor volume is 2.4. In addition, the T/C in the data set on Mus musculus [24] is 38%. In the data set with Mus musculus [44], this compound registered an LD10 of 53 mg/kg/day and an LD50 of 63 mg/kg/day.

As a reminder, the T/C is the result in the treated group divided by that in the control group, in per cent. A word on the LD50: it is the dose expected to kill half of the subjects tested.
